Test systems include NCI-H23 lung; MDA-MB-231 breast; SN12C renal; UO-31 renal; 786-0 renal; SF-268 CNS; HS 578T breast; HT29 colon; CAKI-1 renal; SF-295 CNS; M14 melanoma; MDA-N; DU-145 prostate.
What all share (experiment): NCI anticancer screen, dose series, 48 h

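Tested at 5 concentrations; 48 h exposure; 96-well plates; endpoints linearly interpolated, else capped at highest concentration. At the TGI there is no net growth.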 A value given as a limit tells only on which side of the number the result lay.

Consider `N/N=C(\C(=O)Nc1ccc([N+](=O)[O-])cc1)C(C1=Nc2cc([N+](=O)[O-])ccc2NC1)[N+](=O)[O-]` (stereo unspecified), for which the TGI in the test with NCI-H23 lung, with MDA-MB-231 breast, with SN12C renal, in the test with UO-31 renal, in the test on 786-0 renal and with SF-268 CNS was over 100 µM throughout. Moreover, the TGI with HS 578T breast, in the test with HT29 colon, in the test on CAKI-1 renal, in the test with SF-295 CNS, with M14 melanoma and in the test on MDA-N was over 100 µM each time.
As to `CC(=O)O[C@H]1[C@@H](N2CCN(C)CC2)C[C@H]2[C@@H]3CC=C4C[C@@H](N5CCCC5)CC[C@]4(C)[C@H]3CC[C@@]21C`, the TGI in the test on NCI-H23 lung, with MDA-MB-231 breast, in the test with SN12C renal, in the test with UO-31 renal, in the test on 786-0 renal and in the test with SF-268 CNS was over 100 µM each time. Also, the TGI is over 100 µM with HS 578T breast; over 100 µM in the test on HT29 colon; over 100 µM with CAKI-1 renal; 53.5 µM in the test with SF-295 CNS; 34.5 µM in the test with M14 melanoma; over 100 µM in the test with MDA-N.
Turning to `COc1cc(OC)nc(Nc2c(C#N)c3nc4ccccc4n3c3ccccc23)n1`, the TGI in the test on NCI-H23 lung was over 100 µM; in the test with UO-31 renal, over 100 µM; with 786-0 renal, 43.6 µM; in the test with SF-268 CNS, over 100 µM; in the test with HS 578T breast, over 100 µM; with DU-145 prostate, over 100 µM. Also, the TGI with HT29 colon is over 100 µM; with CAKI-1 renal it was over 100 µM; in the test on SF-295 CNS it was 53 µM; in the test on M14 melanoma, over 100 µM; with MDA-N, over 100 µM.
For `[N-]=[N+]=NC1=C(c2ccccc2)C(=O)c2cccc3cccc1c23`, the TGI with NCI-H23 lung is over 100 µM; in the test with SN12C renal, over 100 µM; in the test on UO-31 renal it was over 100 µM; in the test on 786-0 renal it was 88.1 µM; in the test on SF-268 CNS it was over 100 µM; in the test with HS 578T breast, 48.6 µM. Further, the TGI with DU-145 prostate is over 100 µM; in the test on HT29 colon it was 27 µM; in the test with CAKI-1 renal, over 100 µM; in the test with SF-295 CNS, 26.5 µM; with M14 melanoma, over 100 µM; in the test with MDA-N, over 100 µM.
Take `Cc1nn(C)c2c1C(=O)N(C)CC(=O)N2C`: the TGI in the test on NCI-H23 lung, in the test on SN12C renal, in the test with UO-31 renal, in the test on 786-0 renal, in the test on SF-268 CNS and in the test on HS 578T breast was over 100 µM each time. The TGI with DU-145 prostate, with HT29 colon, in the test with CAKI-1 renal, in the test with SF-295 CNS, with M14 melanoma and in the test with MDA-N was over 100 µM throughout.
Regarding `COc1cccc(-n2c(N)c(-c3nc4cc(C(F)(F)F)ccc4s3)c3ccc([N+](=O)[O-])cc3c2=O)c1`, the TGI in the test with NCI-H23 lung, in the test on MDA-MB-231 breast, with SN12C renal, in the test with UO-31 renal, with 786-0 renal and with SF-268 CNS was over 100 µM each time. Besides, the TGI in the test on DU-145 prostate, in the test on HT29 colon, in the test with CAKI-1 renal, in the test on SF-295 CNS, with M14 melanoma and in the test with MDA-N was over 100 µM in each case.
For `COc1ccc(-c2nnc(CCCCCCCCc3nnc(-c4ccc(OC)cc4)o3)o2)cc1`, the TGI in the test on NCI-H23 lung, with MDA-MB-231 breast, with SN12C renal, in the test with UO-31 renal, in the test with 786-0 renal and in the test with SF-268 CNS was over 100 µM in each case. The TGI in the test on DU-145 prostate, in the test on HT29 colon, with CAKI-1 renal, in the test with SF-295 CNS, in the test with M14 melanoma and with MDA-N was over 100 µM each time.
Regarding `CCNc1ncnc2n[nH]nc12`, the TGI in the test with NCI-H23 lung, with MDA-MB-231 breast, in the test with SN12C renal, with UO-31 renal, with 786-0 renal and in the test with DU-145 prostate was over 100 µM in each case. The TGI in the test with HT29 colon, with CAKI-1 renal, in the test on SF-295 CNS, with M14 melanoma and in the test with MDA-N was over 100 µM throughout.
Take `N#CC(c1cc(Cl)ncn1)c1nc2ccccc2s1` (stereo unspecified): the TGI in the test with NCI-H23 lung is 19.5 µM; with MDA-MB-231 breast, 60.4 µM; in the test with SN12C renal, 7.49 µM; in the test with UO-31 renal, over 100 µM; with 786-0 renal, 29.5 µM; in the test on SF-268 CNS it was 18.3 µM. Moreover, the TGI turned out to be 24.2 µM with DU-145 prostate; 23.6 µM in the test on HT29 colon; 82.1 µM in the test on CAKI-1 renal; 43.7 µM in the test on SF-295 CNS; 33.6 µM in the test on M14 melanoma; 24.1 µM in the test with MDA-N.

The values are drawn from PubChem BioAssay (NCI).
